Measured values as given in patent US20080199846A1, “Poultry semen extender” (priority 2007, published 2008).

Tested on: 24 h-stored turkey semen
Test: Fertility evaluation: artificial insemination of hens with 24 h-stored turkey semen
Format: in vivo
Settings: for fertility of 24 h-stored semen versus control stored semen: 0.5, 2.5 or 10.0 mg/ml PC, wks 1-7 of egg production
Text: Materials and Methods. Animals: LargeWhite breeder poults were purchased from a primary breeder and maintained under standard management conditions during the brooding and growing periods. At 28 wk of age, toms were photostimulated by increasing light exposure from a 12:12 to a 14:10 light:dark cycle to initiate semen production. Using the abdominal massage semen collection method (Burrows, W. H., and J. P. Quinn, Poult. Sci., 14: 251-254 (1935)), toms were pre-milked at 30 wk of age and then screened for semen quality at 31 and 32 wk of age prior to being designated to sperm storage treatment groups. At 32 wk of age, hens were photostimulated by increasing the daily light exposure from 6:18 to 14:10 h (light:dark) to initiate ovarian development and egg production. Hens were inseminated on Days 10 and 12 after photostimulation and then once per week for the next 12 wk of egg production. A total of 10 toms and 76 hens were used for each experimental replicate.
Semen Collection, Evaluation and Storage: Semen was collected weekly from toms and evaluated for volume, sperm concentration, sperm viability, and sperm mobility. Fresh semen was aliquoted for the control and 3 sperm treatments. Control semen was extended 1:1 with Beltsville Poultry Semen Extender (BPSE), while treated semen was extended 1:1 with BPSE supplemented with 0.5, 2.5 or 10.0 mg/ml phosphatidylcholine (PC). Extended semen was transferred to 48-well culture plates. Multiwell plates were placed in a room temperature water bath on an orbital shaker (125 rpm) and slowly cooled to 4° C. with lids loosely fitted to ensure air availability during agitation. Semen was maintained under these conditions for 24 h.
Fertility Evaluation: A total of 304 hens (76/replicate) were artificially inseminated weekly with semen stored with 0.5 mg PC/ml (n=19), 2.5 mg PC/ml (n=19), 10 mg PC/ml (n=19) or without PC (control, n=19). An additional set of hens were inseminated weekly with stored semen containing 2.5 mg/ml PC and either 0.5 mM, 5.0 mM, or 50 mM ZnCl2; prior to insemination, semen stored in the presence of ZnCl2 was treated with EDTA to chelate Zn ions and restore sperm motility. The inseminant dose for all treatments was 150×10^6 sperm. This sperm number is less than that typically inseminated for commercial production; however, I desired a system sufficiently sensitive to detect even small changes in fertility due to sperm treatment. Eggs were candled after 7 d of incubation to determine true fertility and allowed to hatch to determine hatchability. Fertility trials were replicated 4 times using different flocks.
Statistical Analysis: Prior to analysis, data were checked to determine if a transformation was necessary. As expected, variables scored as percents (e.g., fertility) required transformation. I used the standard variance stabilizing arcsine transformation, y=arcsine (√(x)), where x represents the data, recorded as a proportion, and y is the scale used in the analysis. This transformation stabilized the variances sufficiently to proceed with an analysis in a mixed models framework. Software for conducting mixed models analyses in non-Gaussian frameworks, e.g., logistic regression, is not yet readily available. The mixed models I developed, estimated using Proc Mixed (SAS Institute, 1999), considered sperm treatment and week of study as fixed factors, with hen as a random factor. In addition, since data were taken from the same individuals repeatedly, thus inducing correlation, I allowed for within-individual time series correlation using an autoregressive structure. To ensure that my sample size and design had sufficient power to accurately determine the effects of the sperm treatments, I did a small simulation study prior to finalizing the design. Power was reassessed once the study was complete, and I report those results below. I used the default REML estimation method in Proc Mixed. […]

With `[Cl-].[Cl-].[Zn+2]` [ZnCl2] the “fertility rates versus 5.0 or 50 mM ZnCl2” value (0.5 mM ZnCl2, semen with 2.5 mg/ml PC, EDTA before insemination, p<0.05) was “Higher” and the “true fertility of 24 h-stored semen versus other ZnCl2 treatments or control semen” value (5.0 mM ZnCl2, wks 1-7, p<0.05) was “higher”.
For phosphatidylcholine [PC], the “hens producing 100% fertile eggs versus any other stored semen treatment” value (2.5 mg/ml PC, first 7 wks of egg production, p<0.05) was “more”, the “percentage of hens laying all (100%) fertile eggs versus any other sperm treatment group” value (2.5 mg/ml PC, wks 2-7, p<0.05) was “more” and the “predictability of fertility versus the other concentrations” value (10 mg/ml) was “less predictable fertility”. For the same molecule, the “fertility rates during egg production” value (10 mg/ml PC treatment) was “varied widely”, the “fertility rates versus 0.5 or 2.5 mg/ml PC treatments” value (10 mg/ml PC, at 1, 2 8, 10, 11, and 12 wks, p<0.05) was “Lower” and the “percentage of hens laying all unfertilized eggs versus any other sperm treatment group” value (10.0 mg/ml PC, wks 4 and 10, p<0.05) was “more”. The “fertility of 24 h-stored semen versus control stored semen” value (p<0.05) was “improved”, the “fertility of 24 h-stored semen versus control stored semen” value (p<0.05, listed as phosphatidycholine) was “higher” and the “fertility of stored turkey semen” value (0.5 or 2.5 mg/ml, first 12 wks of egg production) was “improved”. The “fertility rates, 0.5 versus 2.5 mg/ml PC treatments” value (throughout egg production except wks 7 and 12, p>0.05) was “similar” and the “fertility of 2.5 mg/ml PC treatment versus 0.5 mg/ml” value (wks 7 and 12, p<0.05) was “higher”.
